The structures appear in SMILES notation.

From patent publication US9120762B2, “Salts of bicyclo-substituted pyrazolon azo derivatives, preparation method and use thereof” (Jiangsu Hengrui Medicine Co., Ltd., priority 2009, dated 2015) come the findings set out here.

Data set [1] is described as follows: Pharmacokinetics assay in rats. Format: in vivo, SD rats. In outline: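 SD rats, half male and half female, dosed intragastrically with compound suspended at 5 mg/mL (as free acid) in 1% sodium carboxymethyl cellulose; fed 2 h post-dose. Plasma concentrations over time were measured by HPLC-UV. Parameters came from a compartmental fit, with Cmax and tmax as observed values.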

The nature of data set [2]: Pharmacokinetics assay in Beagle dogs. Type of data set: in vivo. The conditions noted are these: for Vd/F / AUC / CL/F / half-life / MRT / Cmax / Tmax: male, beagle, dog, plasma, po; for Vd/F: read-out: Apparent Distribution Volume Vz/F; for AUC: read-out: Area Under Curve AUC; for CL/F: read-out: Clearance CL/F (converted); for half-life: read-out: Half-Life t1/2 (converted); for MRT: read-out: Mean Residence Time MRT; for Cmax: read-out: Plasma Conc. Cmax; for Tmax: read-out: Time to peak Tmax. As for the experimental part:
The pharmacokinetic behavior of the compounds of the present disclosure was studied and evaluated in Beagle dogs.
12 Healthy adult Beagles dogs, male, were purchased from Suzhou Xishan Drug Research and Development Colo., LTD. License number: SCXK (Suzhou) 2007-0005.
The test compound was diluted with 0.5% sodium carboxymethyl cellulose to 2.5 mg/mL (calculated as the free acid form) of suspension before use.
12 Healthy adult Beagles dogs, male, were divided into 4 groups. After an overnight fast, the dogs were administered intragastrically at a dose of 5.0 mg/kg (calculated as the free acid form), at a volume of 2 mL/kg.
Blood samples (1.2 mL) were taken from vein of forelegs at pre administration and at 0.25, 0.5, 1.0, 1.5, 2.0, 3.0, 5.0, 6.0, 8.0, 12.0, 14.0, 24.0 and 48.0 hours post administration, which were stored in heparinized tubes and centrifuged for 10 minutes at 3,500 rpm. The plasma samples were stored at −20° C. until analysis. The Beagles dogs were fed 2 hours after administration.
50 μL of Beagles dog plasma, obtained at various time points after administration, 20 μL of internal standard solution and 150 μL of methanol was added to result in protein precipitation. Then the mixture was mixed for 1 minute using a vortexer and centrifuged for 5 minutes at 11,000 rpm. 50 μL of the supernatant was analyzed by HPLC-UV.
The compartmental model of pharmacokinetics was fitted for the test compounds and the major pharmacokinetic parameters were calculated in which Cmax and tmax were the actually measured values.

[3] abbreviates: SD rats, intragastric, 50 mg/Kg (as free acid), 50 mg/kg.
Setting [4] is: intragastric, 5 mg/kg (as free acid), 5 mg/kg.
The mark [5] stands for this setting: 5 mg/kg, intragastric, 5 mg/kg (as free acid).

Regarding `CC1=NN(c2ccc3c(c2)CCCC3)C(=O)/C1=N\Nc1cccc(-c2ccc(C(=O)O)o2)c1O` [Example 8, (Z)-5-(2-hydroxy-3-{N′-[3-methyl-5-oxo-1-(5,6,7,8-tetrahydro-naphthalen-2-yl)-1,5-dihydro-pyrazol-4-ylidene]-hydrazino}-phenyl)-furan-2-carboxylic acid bis-(choline)], in data set [1] (setting [3]), the “Area Under Curve AUC” value worked out at 352000 ± 586000 ng·h/mL, the “Clearance CL/F” value came out at 15.4 ± 16.88 mL/min/kg, the “Half-Life t½” value amounted to 10.6 ± 9.02 h and the “Plasma Conc. Cmax” value is 36200 ± 46200 ng/mL. In addition, in data set [1] (setting [3]), the “Time to peak Tmax” value amounted to 1.38 ± 1.11 h. In data set [2] (setting [4]), the “Area Under Curve AUC” value turned out to be 7910 ng·h/mL, the “Clearance CL/F” value was 14.6 mL/min/kg, the “Half-Life t1/2” value is reported as 7.67 h and the “Plasma Conc. Cmax” value amounted to 600 ng/mL. In addition, the “Time to peak Tmax” value in data set [2] (setting [4]) is 0.5 h.
By AUC is commonly meant the area under the concentration-time curve, a measure of exposure. A word on the MRT: it is a mean duration of stay, worked out from the concentration-time curve. The Cmax is the peak of the concentration-time curve. Usually Tmax stands for the time at which the peak concentration occurs. For `CC1=NN(c2ccc3c(c2)CCCC3)C(=O)/C1=N\Nc1cccc(-c2ccc(C(=O)O)o2)c1O` [Example 12, (Z)-5-(2-hydroxy-3-{N′-[3-methyl-5-oxo-1-(5,6,7,8-tetrahydro-naphthalen-2-yl)-1,5-dihydro-pyrazol-4-ylidene]-hydrazino}-phenyl)-furan-2-carboxylic acid bis-(trometamol)], in data set [1] (setting [3]), the “Area Under Curve AUC” value came to 58500 ± 23800 ng·h/mL, the “Clearance CL/F” value amounted to 16.7 ± 8.4 mL/min/kg, the “Half-Life t½” value turned out to be 5.1 ± 2.41 h and the “Plasma Conc. Cmax” value came to 17800 ± 10300 ng/mL. Further, in data set [1] (setting [3]), the “Time to peak Tmax” value amounted to 1.38 ± 1.11 h. In data set [2] (setting [5]), the Vd/F was determined as 4.86 L/kg, the AUC is 11000 ng·h/mL, the CL/F is 11 mL/min/kg and the half-life was 6.86 h. In data set [2] (setting [5]), the MRT turned out to be 11.6 h, the Cmax was found to be 811 ng/mL and the Tmax is 0.5 h.
On to `CC1=NN(c2ccc3c(c2)CCCC3)C(=O)/C1=N\Nc1cccc(-c2ccc(C(=O)O)o2)c1O.NCCO.NCCO` [Example 7, (Z)-5-(2-hydroxy-3-{N′-[3-methyl-5-oxo-1-(5,6,7,8-tetrahydro-naphthalen-2-yl)-1,5-dihydro-pyrazol-4-ylidene]-hydrazino}-phenyl)-furan-2-carboxylic acid bis-(ethanolamine)], for which the Vd/F in data set [1] (both sexes, SD, rat, plasma, po, 50 mg/kg, SD rats, intragastric, 50 mg/Kg (as free acid), read-out: Apparent Distribution Volume Vz/F) was determined as 2.48 ± 0.92 L/kg; in data set [2] (setting [5]), 5.72 L/kg. For the same compound, the AUC in data set [1] (both sexes, SD, rat, plasma, po, 50 mg/kg, SD rats, intragastric, 50 mg/Kg (as free acid), read-out: Area Under Curve AUC) is 469000 ± 274000 ng·h/mL; in data set [2] (setting [5]), 12200 ng·h/mL. Also, the CL/F was 2.92 mL/min/kg in data set [1] (both sexes, SD, rat, plasma, po, 50 mg/kg, SD rats, intragastric, 50 mg/Kg (as free acid), read-out: Clearance CL/F (converted)) and 8.3 mL/min/kg in data set [2] (setting [5]). The half-life is 13.9 ± 6.07 h in data set [1] (both sexes, SD, rat, plasma, po, 50 mg/kg, SD rats, intragastric, 50 mg/Kg (as free acid), read-out: Half-Life t½ (converted)) and 8.24 h in data set [2] (setting [5]). Besides, the MRT in data set [1] (both sexes, SD, rat, plasma, po, 50 mg/kg, SD rats, intragastric, 50 mg/Kg (as free acid), read-out: Mean Residence Time MRT) turned out to be 13.3 ± 5.12 h; in data set [2] (setting [5]) it was 13.3 h. The Cmax in data set [1] (both sexes, SD, rat, plasma, po, 50 mg/kg, SD rats, intragastric, 50 mg/Kg (as free acid), read-out: Plasma Conc. Cmax) worked out at 74100 ± 34500 ng/mL; in data set [2] (setting [5]), 985 ng/mL. The Tmax in data set [1] (both sexes, SD, rat, plasma, po, 50 mg/kg, SD rats, intragastric, 50 mg/Kg (as free acid), read-out: Time to peak Tmax) was 1.75 ± 0.5 h; in data set [2] (setting [5]), 1.2 h. For the same compound, in data set [1] (rats, comparing to the free acid), the “pharmacokinetics and bioavailability, in words” value was “good pharmacokinetic characteristics”. Further, in data set [2] (among the four salts), the “pharmacokinetics, in words” value is “obviously superior in pharmacokinetics”.
